Columns and labels:
rape = experiment: Test B pre/postemergence rape; format: in vivo, Brassica napus
Procedure, shortened: (§1)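 Test chemicals in a non-phytotoxic solvent mixture with surfactant were sprayed preemergence onto planted seeds and postemergence onto plants 2 to 18 cm tall (1- to 4-leaf stage). After twelve to sixteen days in a greenhouse, injury was visually rated against untreated controls from 0 (no effect) to 10 (complete control).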

giant foxtail = experiment: Test B pre/postemergence giant foxtail; format: in vivo, Setaria faberii
Procedure, shortened: as §1

blackgrass = experiment: Test B pre/postemergence blackgrass; format: in vivo, Alopecurus myosuroides
Procedure, shortened: as §1

crabgrass = experiment: Test B pre/postemergence crabgrass; format: in vivo, Digitaria sanguinalis
Procedure, shortened: as §1

wild oat = experiment: Test B pre/postemergence wild oat; format: in vivo, Avena fatua
Procedure, shortened: as §1

bedstraw = experiment: Test B pre/postemergence bedstraw; format: in vivo, Galium aparine; settings: Preemergence; for Bedstraw plant response rating: scale 0 to 10, 0 is no effect, 10 is complete control
Procedure, shortened: as §1

cocklebur = experiment: Test B pre/postemergence cocklebur; format: in vivo, Xanthium strumarium
Procedure, shortened: as §1

morningglory = experiment: Test B pre/postemergence morningglory; format: in vivo, Ipomoea hederacea
Procedure, shortened: as §1

corn = experiment: Test B pre/postemergence corn; format: in vivo, Zea mays
Procedure, shortened: as §1

pigweed = experiment: Test B pre/postemergence pigweed; format: in vivo, Amaranthus retroflexus
Procedure, shortened: as §1

velvetleaf = experiment: Test B pre/postemergence velvetleaf; format: in vivo, Abutilon theophrasti
Procedure, shortened: as §1

soybean = experiment: Test B pre/postemergence soybean; format: in vivo, Glycine max
Procedure, shortened: as §1

surinam grass = experiment: Test B pre/postemergence surinam grass; format: in vivo, Brachiaria decumbens
Procedure, shortened: as §1

purple nutsedge = experiment: Test B pre/postemergence purple nutsedge; format: in vivo, Cyperus rotundus; settings: Postemergence, Rate 500 g/ha; scale 0 to 10, 0 is no effect, 10 is complete control
Procedure, shortened: as §1

sugar beet = experiment: Test B pre/postemergence sugar beet; format: in vivo, Beta vulgaris
Procedure, shortened: as §1

wheat = experiment: Test B pre/postemergence wheat; format: in vivo, Triticum aestivum
Procedure, shortened: as §1

[1] = Postemergence, Rate 62 g/ha, scale of 0 to 10, 0 is no effect, 10 is complete control
[2] = Postemergence, Rate 125 g/ha, scale 0 to 10, 0 is no effect, 10 is complete control
[3] = Postemergence, Rate 500 g/ha, scale 0 to 10, 0 is no effect, 10 is complete control
[4] = Preemergence, Rate 62 g/ha, scale of 0 to 10 where 0 is no effect and 10 is complete control
[5] = Preemergence, Rate 125 g/ha, scale 0 to 10, 0 is no effect, 10 is complete control
[6] = Preemergence, Rate 500 g/ha, scale of 0 to 10 where 0 is no effect and 10 is complete control
[7] = Postemergence, Rate 250 g/ha, scale 0 to 10
[8] = Preemergence, Rate 250 g/ha, scale 0 to 10, 0 is no effect, 10 is complete control

CC(C)N(C(=O)n1oc(=O)n(CCc2ccccc2)c1=O)c1ccc(F)cc1F [Compound 508]
Rape plant response rating (rape; [1]): 1
Rape plant response rating (rape; [2]): 5
Plant response rating, Rape (rape; [3]): 8
Plant response rating, Rape (rape; [4]): 0
Rape plant response rating (rape; [5]): 0
Rape plant response rating (rape; [6]): 3
Giant foxtail plant response rating (giant foxtail; [1]): 8
Giant foxtail plant response rating (giant foxtail; [2]): 8
Plant response rating, Giant foxtail (giant foxtail; [3]): 8
Plant response rating, Giant foxtail (giant foxtail; [4]): 10
Giant foxtail plant response rating (giant foxtail; [5]): 10
Giant foxtail plant response rating (giant foxtail; [6]): 10
Blackgrass plant response rating (blackgrass; [1]): 0
Blackgrass plant response rating (blackgrass; [2]): 3
Blackgrass plant response rating (blackgrass; [7]): 6
Plant response rating, Blackgrass (blackgrass; [3]): 6
Plant response rating, Blackgrass (blackgrass; [4]): 1
Blackgrass plant response rating (blackgrass; [5]): 3
Blackgrass plant response rating (blackgrass; [8]): 5
Blackgrass plant response rating (blackgrass; [6]): 8
Crabgrass plant response rating (crabgrass; [1]): 9
Crabgrass plant response rating (crabgrass; [2]): 9
Crabgrass plant response rating (crabgrass; [7]): 9
Plant response rating, Crabgrass (crabgrass; [3]): 9
Plant response rating, Crabgrass (crabgrass; [4]): 6
Crabgrass plant response rating (crabgrass; [5]): 9
Crabgrass plant response rating (crabgrass; [6]): 10
Wild oats plant response rating (wild oat; [1]): 0
Wild oats plant response rating (wild oat; [2]): 0
Plant response rating, Wild oats (wild oat; [3]): 4
Plant response rating, Wild oats (wild oat; [4]): 3
Wild oats plant response rating (wild oat; [5]): 4
Wild oats plant response rating (wild oat; [6]): 7
Plant response rating, Bedstraw (bedstraw; Rate 62 g/ha, scale of 0 to 10 where 0 is no effect and 10 is complete control): 0
Bedstraw plant response rating (bedstraw; Rate 125 g/ha): 0
Bedstraw plant response rating (bedstraw; Rate 250 g/ha): 0
Bedstraw plant response rating (bedstraw; Rate 500 g/ha): 0
Cocklebur plant response rating (cocklebur; [1]): 0
Cocklebur plant response rating (cocklebur; [2]): 1
Cocklebur plant response rating (cocklebur; [7]): 4
Plant response rating, Cocklebur (cocklebur; [3]): 4
Plant response rating, Cocklebur (cocklebur; [4]): 0
Cocklebur plant response rating (cocklebur; [5]): 0
Cocklebur plant response rating (cocklebur; [8]): 0
Cocklebur plant response rating (cocklebur; [6]): 0
Morningglory plant response rating (morningglory; [1]): 3
Morningglory plant response rating (morningglory; [2]): 3
Plant response rating, Morningglory (morningglory; [3]): 7
Plant response rating, Morningglory (morningglory; [4]): 0
Morningglory plant response rating (morningglory; [5]): 0
Morningglory plant response rating (morningglory; [6]): 0
Corn plant response rating (corn; [1]): 0
Corn plant response rating (corn; [2]): 0
Corn plant response rating (corn; [7]): 0
Plant response rating, Corn (corn; [3]): 3
Plant response rating, Corn (corn; [4]): 0
Corn plant response rating (corn; [5]): 0
Corn plant response rating (corn; [6]): 4
Redroot pigweed plant response rating (pigweed; [1]): 3
Redroot pigweed plant response rating (pigweed; [2]): 7
Plant response rating, Redroot pigweed (pigweed; [3]): 9
Plant response rating, Redroot pigweed (pigweed; [4]): 7
Redroot pigweed plant response rating (pigweed; [5]): 8
Redroot pigweed plant response rating (pigweed; [6]): 10
Velvetleaf plant response rating (velvetleaf; [1]): 0
Velvetleaf plant response rating (velvetleaf; [2]): 1
Plant response rating, Velvetleaf (velvetleaf; [3]): 2
Plant response rating, Velvetleaf (velvetleaf; [4]): 0
Velvetleaf plant response rating (velvetleaf; [5]): 0
Velvetleaf plant response rating (velvetleaf; [6]): 0
Soybean plant response rating (soybean; [1]): 4
Soybean plant response rating (soybean; [2]): 4
Plant response rating, Soybean (soybean; [3]): 5
Plant response rating, Soybean (soybean; [4]): 0
Soybean plant response rating (soybean; [5]): 0
Soybean plant response rating (soybean; [6]): 0
B. signalgrass plant response rating (surinam grass; [1]): 0
B. signalgrass plant response rating (surinam grass; [2]): 0
B. signalgrass plant response rating (surinam grass; Postemergence, Rate 250 g/ha, scale 0 to 10, 0 no effect, 10 complete control): 3
Plant response rating, B. signalgrass (surinam grass; [3]): 3
Plant response rating, B. signalgrass (surinam grass; [4]): 4
B. signalgrass plant response rating (surinam grass; [5]): 7
B. signalgrass plant response rating (surinam grass; [8]): 8
B. signalgrass plant response rating (surinam grass; Preemergence, Rate 500 g/ha, scale 0 to 10, 0 is no effect, 10 is complete control): 8
Plant response rating, Nutsedge (purple nutsedge): 0
Sugarbeets plant response rating (sugar beet; [1]): 0
Sugarbeets plant response rating (sugar beet; [2]): 1
Plant response rating, Sugarbeets (sugar beet; [3]): 9
Plant response rating, Sugarbeets (sugar beet; [4]): 1
Sugarbeets plant response rating (sugar beet; [5]): 1
Sugarbeets plant response rating (sugar beet; [6]): 6
Wheat plant response rating (wheat; [1]): 0
Wheat plant response rating (wheat; [2]): 0
Plant response rating, Wheat (wheat; [3]): 0
Plant response rating, Wheat (wheat; [4]): 0
Wheat plant response rating (wheat; [5]): 0
Wheat plant response rating (wheat; [6]): 2

— patent US6737383B1, “Herbicidal oxadiazolidines” (priority 1999, dated 2004)
